Data taken from patent publication US20250263441A1 (Metanovas Biotech Inc., priority 2024, published 2025).
“And” between values parts separate entries of the source, which are not always exact repeats. Equal entries are not always repeated.

Tests used:
Assay type in all cases: cell-based
[1] = system: Staphylococcus aureus (ATCC: 25913); assay: Inhibitory effect of AMP-33 on Staphylococcus aureus (viability, OD 630 nm); settings: for Viability of Staphylococcus aureus: 24 hours, repeated experiments
Description: (§1) (1) Staphylococcus aureus and Escherichia coli were inoculated into LB liquid medium and cultured overnight under aerobic conditions at 37° C. and […] on a shaker.
(§2) (2) 200 μL of LB liquid culture medium and a predetermined concentration of peptide AMP-33 were added to a 96-deep-well plate. Then, 10 μL of the Staphylococcus aureus/Escherichia coli solution was inoculated (mixed well before inoculation).
(§3) (3) After incubating at […] for 24 hours on a shaking table at 37° C., the turbidity of the bacterial solution was observed. A volume of 100 μL of the solution was taken, and the OD at 630 nm was measured using an enzyme-linked immunosorbent assay (ELISA) reader (after multiple blows and mixing).
(§4) [formula] • OD Measurement: OD value of the test peptide. • ODneg: OD value with no bacterial inoculation, containing only […] medium. • ODpos: OD value with bacterial inoculation and without inhibitors.

[2] = system: HaCat (human immortalized epidermal cells) cells; assay: Cytotoxic assay (CCK-8) in HaCat cells; settings: 60 hours
Description: Preparation of Cell Suspension: HaCat (human immortalized epidermal cells) cells were counted and inoculated into 96-well plates. 100 μL of cell suspension was added to each well, corresponding to a density of 5×10^4 cells per well, with three replicates for each sample. The cells were cultured in a 37° C. incubator for 4 hours until they were attached to the plate. Peptides from the examples, as well as FK13 and HPA3NT3, were then added at concentrations of 80 μg/mL, 32 μg/mL, and 8 μg/mL. The cells were incubated at 37° C. for 60 hours. Afterward, 10 μL of CCK-8 solution was added, and the cells were cultured for an additional 2 hours. The absorbance of the peptides at 450 nm was measured using a dual-wavelength detector, with a detection wavelength of 450-490 nm and a reference wavelength of 600-650 nm.

[3] = system: Escherichia coli (ATCC: 25922); assay: Inhibitory effect of AMP-33 on Escherichia coli (viability, OD 630 nm); settings: for Viability of Escherichia coli: 24 hours, repeated experiments
Description: as §1, §2, §3, §4

Streptococcus mutans = assay: Inhibitory effect of AMP-33 on Streptococcus mutans; settings: 5 and 10 μg/mL, 16 hours
Description: (1) Streptococcus mutans was cultured to the logarithmic phase, then 5 mL of the bacterial solution was centrifuged at 5,000 g for 10 minutes. The organisms were resuspended in Brain-Heart Infusion (BHI) medium, and the concentration of the bacterial solution was adjusted to approximately 2×10^5 CFU/mL using pre-configured McClure's turbidimetric tubes.
(2) Streptococcus mutans was cultured in a microtiter plate (96 wells), and 50 μL of different AMP33 peptides were added (at concentrations of 5 and 10 μg/mL). Then, 100 μL of diluted Streptococcus mutans bacterial fluid was added, followed by 50 μL of BHI medium, resulting in a final concentration of 1×10^5 CFU/mL.
(3) A blank control was provided with equal amounts of medium solution and bacterial solution as that of the experimental group, with at least 3 replicates for each treatment group.
(4) The 96-well plate was placed in a bacterial incubator at 37° C. and incubated at 150 rpm for 16 hours.

Staphylococcus aureus = assay: Minimum inhibitory concentration on Staphylococcus aureus (liquid culture); settings: 37° C., 24 to 48 hours
Description: Primary screening of liquid culture: the peptides in Examples 1 to 2 were dissolved in pure water to a concentration of 100 μg/mL. Using a micropipette, 10 μL of the peptides were added to a new 96-well plate in order from left to right, starting from the second compartment. Positive and negative controls were established for use. The 96-well plates were arranged vertically, and the peptide concentrations in the control groups were the same as those of the antimicrobial peptides. The control groups included: pure water and bacteria, antimicrobial peptide FK13 and bacteria, antimicrobial peptide HPA3NT3 and bacteria, and ciprofloxacin and bacteria. An aseptic medium was used.
(§5) If a 96-deep-well plate was used to culture bacteria, an additional 100 μL of sterile medium was added to all wells.
(§6) Staphylococcus aureus was inoculated in LB medium with a normal oxygen concentration (21%) for 48 hours. Staphylococcus aureus clones were picked and incubated in LB medium at 37° C. with a normal oxygen concentration (21%) for an additional 48 hours. The bacterial concentration was measured and diluted to 107 CFU/mL with culture medium for use.
The prepared fresh bacterial suspension was diluted to 105 CFU/mL and added to the 96-well plate with 90 μL of the bacterial suspension per well. The plate was incubated at 37° C. with a normal oxygen concentration for 24 to 48 hours (Propionibacterium acnes was cultured anaerobically at 37° C. for 24 to 48 hours in an anaerobic bag). The absorbance at 630 nm was measured using a microplate reader, and the degree of turbidity was observed by the naked eye.
(§7) (iv) Repetition of Operations: The Operations in (iii) were Repeated Twice, and the Decision to Perform a Third Repetition was Based on the Reproducibility of the Experiment.

Candida albicans = assay: Minimum inhibitory concentration on Candida albicans (liquid culture); settings: 37° C., 24 to 48 hours
Description: Primary screening of liquid culture: the peptides in Examples 1 to 2 were dissolved in pure water to a concentration of 100 μg/mL. Using a micropipette, 10 μL of the peptides were added to a new 96-well plate in order from left to right, starting from the second compartment. Positive and negative controls were established for use. The 96-well plates were arranged vertically, and the peptide concentrations of the control groups were the same as those of the antimicrobial peptide. The control groups consisted of: pure water and bacteria, antimicrobial peptide FK13 and bacteria, and antimicrobial peptide HPA3NT3 and bacteria. An aseptic medium was used. The amino acid sequence of FK13 is […] (SEQ ID NO: 5), and the amino acid sequence of HPA3NT3 is […] (SEQ ID NO: 6).
as §5
as §6, with “Candida albicans was” for “Staphylococcus aureus was”, “with” for “with a”, “hours. […]” for “hours. Staphylococcus aureus”, “for” for “for an additional”
The prepared fresh bacterial suspension was diluted to 105 CFU/mL and added to the 96-well plate with 90 μL of the bacterial suspension per well, and incubated at 37° C. with normal oxygen concentration for 24 to 48 hours. The absorbance at 630 nm was measured with a microplate reader, and the degree of turbidity was observed by the naked eye.
as §7

## Example 2: LSKWLKKLGKLLAG (designated as AMP33)
[1]; 1 μg/mL
  Viability of Staphylococcus aureus: 117.78 and 116.41 and 116.45
[1]; 2 μg/mL
  Viability of Staphylococcus aureus: 121.60 and 104.84 and 102.77
[1]; 4 μg/mL
  Viability of Staphylococcus aureus: 88.75 and 109.74 and 132.77
[1]; 8 μg/mL
  Viability of Staphylococcus aureus: 98.53 and 99.19 and 97.03
[1]; 50 ppm
  inhibition of Staphylococcus aureus: over 99%
[2]
  Maximum cytotoxicity-free concentration: 80 µg/mL
[3]; 1 μg/mL
  Viability of Escherichia coli: 110.11 and 91.93 and 82.94
[3]; 2 μg/mL
  Viability of Escherichia coli: 89.71 and 90.4 and 98.53
[3]; 4 μg/mL
  Viability of Escherichia coli: 86.48 and 70.83 and 70.35
[3]; 8 μg/mL
  Viability of Escherichia coli: 78.87 and 50.46 and 73.2
[3]; 25 μg/mL
  Viability of Escherichia coli: 74.99 and 38.97 and 51.39
[3]; 25 ppm
  inhibition of Escherichia coli: over 99%
Streptococcus mutans
  inhibition rate of Streptococcus mutans: approximately 100%
Staphylococcus aureus
  Minimum inhibitory concentration on Staphylococcus aureus: 12.5 µg/mL
Candida albicans
  Minimum inhibitory concentration on Candida albicans: 25 µg/mL
